{
  "source": "ChEMBL document CHEMBL4800727",
  "about": "(2021)",
  "key": {"[1]": {"target": "GABA-A receptor; anion channel", "test": "GPCRScan assay: inhibition of GABAA", "type": "protein-complex assay, Rattus norvegicus", "set-up": "radioligand conc. used [nm] 9.50 – 25.0, parental cells brain tissue"}, "[2]": {"target": "cAMP and cAMP-inhibited cGMP 3',5'-cyclic phosphodiesterase 10A (Homo sapiens, UniProt Q9Y233)", "test": "In vitro assay with human PDE10A"}, "[3]": {"target": "Alpha-2A adrenergic receptor (Homo sapiens) (UniProt P08913)", "conditions": "Compound concentration 10.0 uM; call rule not given here"}, "[4]": {"target": "Cyclin-dependent kinase 5/CDK5 activator 1 (Homo sapiens) (UniProt Q00535+Q15078)", "test": "cyclin-dependent kinase 5 / p25 Millipore kinase panel", "type": "protein-complex assay", "conditions": "Compound concentration 10.0 uM"}, "[5]": {"target": "CDK6/cyclin D3 (Homo sapiens) (UniProt P30281+Q00534)", "test": "cyclin-dependent kinase 6 / cyclinD3 Millipore kinase panel", "type": "protein-complex assay", "conditions": "Compound concentration 10.0 uM"}, "[6]": {"target": "Death-associated protein kinase 1 (Homo sapiens) (UniProt P53355)", "sequence (P53355 whole entry, looked up)": "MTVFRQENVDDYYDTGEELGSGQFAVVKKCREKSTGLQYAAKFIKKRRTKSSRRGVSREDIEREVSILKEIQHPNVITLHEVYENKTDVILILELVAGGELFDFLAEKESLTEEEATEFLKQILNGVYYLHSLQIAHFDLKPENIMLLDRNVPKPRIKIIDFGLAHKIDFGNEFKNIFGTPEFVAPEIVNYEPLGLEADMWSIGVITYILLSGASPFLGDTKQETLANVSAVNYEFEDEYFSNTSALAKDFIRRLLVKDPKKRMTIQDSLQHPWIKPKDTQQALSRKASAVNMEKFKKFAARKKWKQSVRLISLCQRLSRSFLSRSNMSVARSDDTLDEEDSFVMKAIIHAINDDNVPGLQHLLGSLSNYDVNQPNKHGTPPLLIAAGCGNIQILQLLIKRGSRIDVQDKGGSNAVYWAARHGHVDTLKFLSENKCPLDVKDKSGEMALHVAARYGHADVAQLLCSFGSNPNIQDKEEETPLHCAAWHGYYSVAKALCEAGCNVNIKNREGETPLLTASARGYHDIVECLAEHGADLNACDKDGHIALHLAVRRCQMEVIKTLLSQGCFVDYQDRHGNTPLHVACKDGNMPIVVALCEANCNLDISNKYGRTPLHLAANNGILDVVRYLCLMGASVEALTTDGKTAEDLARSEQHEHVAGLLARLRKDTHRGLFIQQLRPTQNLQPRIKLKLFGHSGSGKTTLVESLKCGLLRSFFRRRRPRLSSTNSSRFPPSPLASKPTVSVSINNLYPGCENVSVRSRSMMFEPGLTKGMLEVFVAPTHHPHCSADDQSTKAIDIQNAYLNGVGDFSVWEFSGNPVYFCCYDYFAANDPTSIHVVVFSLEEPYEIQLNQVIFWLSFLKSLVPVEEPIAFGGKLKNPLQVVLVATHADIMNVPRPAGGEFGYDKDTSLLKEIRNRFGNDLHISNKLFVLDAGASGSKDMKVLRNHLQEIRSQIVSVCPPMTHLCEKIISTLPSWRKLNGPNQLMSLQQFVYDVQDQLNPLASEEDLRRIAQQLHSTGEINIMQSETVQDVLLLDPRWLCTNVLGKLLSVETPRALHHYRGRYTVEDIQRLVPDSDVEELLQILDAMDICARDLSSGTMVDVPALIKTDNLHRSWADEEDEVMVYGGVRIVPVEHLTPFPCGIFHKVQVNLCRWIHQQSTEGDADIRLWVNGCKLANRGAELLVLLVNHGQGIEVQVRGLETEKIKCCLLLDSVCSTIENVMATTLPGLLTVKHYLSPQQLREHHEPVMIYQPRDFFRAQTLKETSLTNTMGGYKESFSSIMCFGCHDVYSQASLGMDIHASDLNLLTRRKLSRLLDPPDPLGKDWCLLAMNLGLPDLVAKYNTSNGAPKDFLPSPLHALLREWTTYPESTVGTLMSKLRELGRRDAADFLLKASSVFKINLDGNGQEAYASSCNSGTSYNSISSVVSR", "test": "death-associated protein kinase 1 Millipore kinase panel", "conditions": "Compound concentration 10.0 uM"}, "[7]": {"target": "Discoidin domain-containing receptor 2 (Homo sapiens) (UniProt Q16832)", "test": "discoidin domain receptor tyrosine kinase 2 Millipore kinase panel", "conditions": "Compound concentration 10.0 uM"}, "[8]": {"target": "Tyrosine-protein kinase Fes/Fps (Homo sapiens) (UniProt P07332)", "test": "feline sarcoma oncogene Millipore kinase panel", "conditions": "Compound concentration 10.0 uM"}, "[9]": {"target": "Vascular endothelial growth factor receptor 1 (Homo sapiens) (UniProt P17948)", "test": "fms-related tyrosine kinase 1 Millipore kinase panel", "conditions": "Compound concentration 10.0 uM"}, "[10]": {"target": "Homeodomain-interacting protein kinase 1 (Homo sapiens) (UniProt Q86Z02)", "sequence (Q86Z02 whole entry, looked up)": "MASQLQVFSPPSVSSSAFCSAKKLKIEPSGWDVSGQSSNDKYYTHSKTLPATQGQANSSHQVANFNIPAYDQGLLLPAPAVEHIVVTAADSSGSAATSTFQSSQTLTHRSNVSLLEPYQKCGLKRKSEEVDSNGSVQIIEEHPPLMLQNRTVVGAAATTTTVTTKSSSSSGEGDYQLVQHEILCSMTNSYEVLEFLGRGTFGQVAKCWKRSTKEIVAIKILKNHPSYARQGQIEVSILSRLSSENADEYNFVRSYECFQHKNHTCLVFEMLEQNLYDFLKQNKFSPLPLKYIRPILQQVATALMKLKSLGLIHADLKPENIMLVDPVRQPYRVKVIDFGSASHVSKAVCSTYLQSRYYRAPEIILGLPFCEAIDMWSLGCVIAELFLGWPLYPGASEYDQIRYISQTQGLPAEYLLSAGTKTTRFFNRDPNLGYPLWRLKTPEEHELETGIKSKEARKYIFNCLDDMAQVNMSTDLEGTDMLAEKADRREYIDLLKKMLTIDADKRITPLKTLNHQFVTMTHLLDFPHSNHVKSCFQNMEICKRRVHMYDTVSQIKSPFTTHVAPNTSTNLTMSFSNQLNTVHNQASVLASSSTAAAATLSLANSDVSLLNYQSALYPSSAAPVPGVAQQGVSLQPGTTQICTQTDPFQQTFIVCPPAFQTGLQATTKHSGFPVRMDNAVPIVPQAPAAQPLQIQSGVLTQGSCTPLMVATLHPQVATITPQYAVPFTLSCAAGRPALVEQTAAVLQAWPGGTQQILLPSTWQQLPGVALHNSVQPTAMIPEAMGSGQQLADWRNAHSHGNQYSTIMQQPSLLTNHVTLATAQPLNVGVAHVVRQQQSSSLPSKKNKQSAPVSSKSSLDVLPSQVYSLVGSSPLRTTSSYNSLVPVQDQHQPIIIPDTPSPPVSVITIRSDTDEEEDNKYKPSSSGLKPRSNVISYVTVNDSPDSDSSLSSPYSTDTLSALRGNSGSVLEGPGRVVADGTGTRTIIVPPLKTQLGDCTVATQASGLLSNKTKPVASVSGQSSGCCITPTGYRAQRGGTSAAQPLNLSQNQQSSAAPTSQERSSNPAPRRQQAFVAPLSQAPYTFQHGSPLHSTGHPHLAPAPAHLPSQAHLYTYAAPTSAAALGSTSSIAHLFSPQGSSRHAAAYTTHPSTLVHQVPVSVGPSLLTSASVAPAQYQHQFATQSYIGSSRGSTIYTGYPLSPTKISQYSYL", "test": "homeodomain interacting protein kinase 1 Millipore kinase panel", "conditions": "Compound concentration 10.0 uM"}, "[11]": {"target": "Insulin-like growth factor 1 receptor (Homo sapiens) (UniProt P08069)", "test": "insulin-like growth factor 1 receptor (activated) Millipore kinase panel", "conditions": "Compound concentration 10.0 uM"}, "[12]": {"target": "Interleukin-1 receptor-associated kinase 4 (Homo sapiens) (UniProt Q9NWZ3)", "test": "interleukin-1 receptor-associated kinase 4 Millipore kinase panel", "conditions": "Compound concentration 10.0 uM"}, "[13]": {"target": "Macrophage-stimulating protein receptor (Homo sapiens) (UniProt Q04912)", "test": "macrophage stimulating 1 receptor Millipore kinase panel", "conditions": "Compound concentration 10.0 uM"}, "[14]": {"target": "Mitogen-activated protein kinase 11 (Homo sapiens) (UniProt Q15759)", "test": "mitogen-activated protein kinase 11 Millipore kinase panel", "conditions": "Compound concentration 10.0 uM"}, "[15]": {"target": "Mitogen-activated protein kinase 8 (Homo sapiens) (UniProt P45983)", "test": "mitogen-activated protein kinase 8 Millipore kinase panel", "conditions": "Compound concentration 10.0 uM"}, "[16]": {"target": "Mitogen-activated protein kinase kinase kinase 5 (Homo sapiens) (UniProt Q99683)", "test": "mitogen-activated protein kinase kinase kinase 5 Millipore kinase panel", "conditions": "Compound concentration 10.0 uM"}, "[17]": {"target": "Serine/threonine-protein kinase Nek11 (Homo sapiens) (UniProt Q8NG66)", "test": "NIMA -related kinase 11 Millipore kinase panel", "conditions": "Compound concentration 10.0 uM"}, "[18]": {"target": "Serine/threonine-protein kinase Nek3 (Homo sapiens) (UniProt P51956)", "sequence (P51956 whole entry)": "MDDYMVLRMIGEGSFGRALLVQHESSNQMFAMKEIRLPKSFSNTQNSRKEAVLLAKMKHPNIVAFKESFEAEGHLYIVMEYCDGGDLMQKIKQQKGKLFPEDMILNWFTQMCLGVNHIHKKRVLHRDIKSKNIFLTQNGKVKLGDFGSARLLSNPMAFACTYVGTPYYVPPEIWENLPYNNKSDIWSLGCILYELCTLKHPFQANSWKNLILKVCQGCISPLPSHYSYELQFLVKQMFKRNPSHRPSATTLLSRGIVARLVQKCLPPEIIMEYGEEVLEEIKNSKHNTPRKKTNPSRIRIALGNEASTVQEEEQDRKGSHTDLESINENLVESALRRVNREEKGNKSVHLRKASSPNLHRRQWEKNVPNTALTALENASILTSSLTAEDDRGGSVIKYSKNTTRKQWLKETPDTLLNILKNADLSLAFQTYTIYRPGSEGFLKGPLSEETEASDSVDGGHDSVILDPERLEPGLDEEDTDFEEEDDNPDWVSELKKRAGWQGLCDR", "test": "NIMA -related kinase 3 Millipore kinase panel", "conditions": "Compound concentration 10.0 uM"}, "[19]": {"target": "NUAK family SNF1-like kinase 1 (Homo sapiens) (UniProt O60285)", "test": "NUAK family, SNF1-like kinase, 1 Millipore kinase panel", "conditions": "Compound concentration 10.0 uM"}, "[20]": {"target": "Serine/threonine-protein kinase PAK 6 (Homo sapiens) (UniProt Q9NQU5)", "test": "p21 protein -activated kinase 6 Millipore kinase panel", "conditions": "Compound concentration 10.0 uM"}, "[21]": {"target": "cGMP-dependent protein kinase 1 (Homo sapiens) (UniProt Q13976)", "test": "protein kinase, cGMP-dependent, type I Millipore kinase panel", "conditions": "Compound concentration 10.0 uM"}, "[22]": {"target": "Proto-oncogene tyrosine-protein kinase receptor Ret (Homo sapiens) (UniProt P07949)", "sequence (P07949 whole entry)": "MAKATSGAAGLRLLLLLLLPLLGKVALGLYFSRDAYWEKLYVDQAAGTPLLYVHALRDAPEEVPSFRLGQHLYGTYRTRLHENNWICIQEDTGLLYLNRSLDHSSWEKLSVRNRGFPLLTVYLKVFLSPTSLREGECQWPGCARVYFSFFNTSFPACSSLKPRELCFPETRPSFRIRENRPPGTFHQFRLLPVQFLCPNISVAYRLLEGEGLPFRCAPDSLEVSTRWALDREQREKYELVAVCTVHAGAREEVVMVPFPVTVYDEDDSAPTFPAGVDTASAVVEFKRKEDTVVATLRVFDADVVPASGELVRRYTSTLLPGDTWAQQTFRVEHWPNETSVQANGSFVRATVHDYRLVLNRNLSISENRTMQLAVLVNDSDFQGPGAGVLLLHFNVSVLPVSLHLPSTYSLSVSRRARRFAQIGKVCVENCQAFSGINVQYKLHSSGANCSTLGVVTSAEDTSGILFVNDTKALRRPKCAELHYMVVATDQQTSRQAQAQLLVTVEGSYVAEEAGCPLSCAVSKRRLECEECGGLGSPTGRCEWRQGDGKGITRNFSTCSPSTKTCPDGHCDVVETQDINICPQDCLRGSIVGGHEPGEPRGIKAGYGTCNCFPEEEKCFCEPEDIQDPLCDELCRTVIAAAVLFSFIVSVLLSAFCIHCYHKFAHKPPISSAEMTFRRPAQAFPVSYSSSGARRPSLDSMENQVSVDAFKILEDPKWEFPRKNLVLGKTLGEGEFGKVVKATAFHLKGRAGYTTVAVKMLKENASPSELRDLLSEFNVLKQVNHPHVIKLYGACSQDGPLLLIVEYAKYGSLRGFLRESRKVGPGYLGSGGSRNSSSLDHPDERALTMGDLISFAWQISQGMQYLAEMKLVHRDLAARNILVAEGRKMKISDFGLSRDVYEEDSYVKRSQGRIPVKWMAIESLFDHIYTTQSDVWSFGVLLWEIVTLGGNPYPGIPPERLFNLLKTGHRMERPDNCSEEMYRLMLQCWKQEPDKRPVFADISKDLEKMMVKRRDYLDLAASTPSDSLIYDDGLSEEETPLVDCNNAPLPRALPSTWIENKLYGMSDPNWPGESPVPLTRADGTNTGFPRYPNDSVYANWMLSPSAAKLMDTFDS", "test": "ret proto-oncogene Millipore kinase panel", "conditions": "Compound concentration 10.0 uM"}, "[23]": {"target": "Ribosomal protein S6 kinase beta-1 (Homo sapiens) (UniProt P23443)", "test": "ribosomal protein S6 kinase, 70kDa, polypeptide 1 Millipore kinase panel", "conditions": "Compound concentration 10.0 uM"}, "[24]": {"target": "Serine/threonine-protein kinase 24 (Homo sapiens) (UniProt Q9Y6E0)", "sequence (Q9Y6E0 whole entry, looked up)": "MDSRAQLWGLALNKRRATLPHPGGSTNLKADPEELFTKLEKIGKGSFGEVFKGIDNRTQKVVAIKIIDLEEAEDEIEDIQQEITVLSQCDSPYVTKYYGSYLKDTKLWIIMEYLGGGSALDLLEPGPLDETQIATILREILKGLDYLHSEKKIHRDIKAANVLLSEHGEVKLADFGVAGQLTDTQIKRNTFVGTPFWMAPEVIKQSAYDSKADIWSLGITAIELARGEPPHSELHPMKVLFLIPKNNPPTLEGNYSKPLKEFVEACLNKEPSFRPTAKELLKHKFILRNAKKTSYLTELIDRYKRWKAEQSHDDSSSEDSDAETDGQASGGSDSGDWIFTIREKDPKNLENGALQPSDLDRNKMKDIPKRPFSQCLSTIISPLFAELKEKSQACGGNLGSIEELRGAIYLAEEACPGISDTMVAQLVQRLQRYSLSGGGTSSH", "test": "serine/threonine kinase 24 Millipore kinase panel", "conditions": "Compound concentration 10.0 uM"}, "[25]": {"target": "Tyrosine-protein kinase Tec (Homo sapiens) (UniProt P42680)", "test": "tec protein tyrosine kinase (activated) Millipore kinase panel", "conditions": "Compound concentration 10.0 uM"}, "[26]": {"target": "Testis-specific serine/threonine-protein kinase 2 (Homo sapiens) (UniProt Q96PF2)", "sequence (Q96PF2 whole entry)": "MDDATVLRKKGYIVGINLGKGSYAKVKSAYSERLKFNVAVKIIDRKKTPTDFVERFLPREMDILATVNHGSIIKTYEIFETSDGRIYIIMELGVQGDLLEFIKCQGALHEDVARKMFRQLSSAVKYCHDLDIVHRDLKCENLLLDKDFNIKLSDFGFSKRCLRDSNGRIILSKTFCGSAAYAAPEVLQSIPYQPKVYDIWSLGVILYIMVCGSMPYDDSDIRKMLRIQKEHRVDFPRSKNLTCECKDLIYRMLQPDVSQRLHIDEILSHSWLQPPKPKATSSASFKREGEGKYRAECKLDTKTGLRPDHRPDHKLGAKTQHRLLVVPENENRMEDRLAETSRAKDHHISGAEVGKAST", "test": "testis-specific serine kinase 2 Millipore kinase panel", "conditions": "Compound concentration 10.0 uM"}, "[27]": {"target": "Activated CDC42 kinase 1 (Homo sapiens) (UniProt Q07912)", "test": "tyrosine kinase, non-receptor, 2 Millipore kinase panel", "conditions": "Compound concentration 10.0 uM"}, "[28]": {"target": "Tyrosine-protein kinase ABL2 (Homo sapiens) (UniProt P42684)", "test": "v-abl Abelson murine leukemia viral oncogene homolog 2 Millipore kinase panel", "conditions": "Compound concentration 10.0 uM"}, "[29]": {"target": "Mast/stem cell growth factor receptor Kit (Homo sapiens) (UniProt P10721)", "test": "v-kit Hardy-Zuckerman 4 feline sarcoma viral oncogene homolog Millipore kinase panel", "conditions": "Compound concentration 10.0 uM"}, "[30]": {"target": "Tyrosine-protein kinase Yes (Homo sapiens) (UniProt P07947)", "test": "v-yes-1 Yamaguchi sarcoma viral oncogene homolog 1 Millipore kinase panel", "conditions": "Compound concentration 10.0 uM"}, "[31]": {"target": "High affinity cGMP-specific 3',5'-cyclic phosphodiesterase 9A (Homo sapiens, UniProt O76083)", "test": "hPDE9A PDE scan"}, "[32]": {"target": "Neuropeptide Y receptor type 1 (Homo sapiens) (UniProt P25929)", "test": "hNPY1 Cerep panel", "conditions": "Compound concentration 10.0 uM"}, "[33]": {"target": "Vasoactive intestinal polypeptide receptor 1 (Homo sapiens) (UniProt P32241)", "test": "hVPAC1 Cerep panel", "conditions": "Compound concentration 10.0 uM"}, "[34]": {"target": "5-hydroxytryptamine receptor 1B (Rattus norvegicus) (UniProt P28564)", "test": "r5HT1B Cerep panel", "conditions": "Compound concentration 10.0 uM"}, "Rattus norvegicus [35]": {"species_on_record": "Rattus norvegicus", "test": "rBZD Cerep panel", "conditions": "Compound concentration 10.0 uM"}, "Rattus norvegicus [36]": {"species_on_record": "Rattus norvegicus", "test": "rSLC6/GABA Cerep panel", "conditions": "Compound concentration 10.0 uM"}, "[37]": {"target": "T1, Muscarinic acetylcholine receptor M4 (Homo sapiens) (UniProt P08173)", "T1 sequence (whole entry)": "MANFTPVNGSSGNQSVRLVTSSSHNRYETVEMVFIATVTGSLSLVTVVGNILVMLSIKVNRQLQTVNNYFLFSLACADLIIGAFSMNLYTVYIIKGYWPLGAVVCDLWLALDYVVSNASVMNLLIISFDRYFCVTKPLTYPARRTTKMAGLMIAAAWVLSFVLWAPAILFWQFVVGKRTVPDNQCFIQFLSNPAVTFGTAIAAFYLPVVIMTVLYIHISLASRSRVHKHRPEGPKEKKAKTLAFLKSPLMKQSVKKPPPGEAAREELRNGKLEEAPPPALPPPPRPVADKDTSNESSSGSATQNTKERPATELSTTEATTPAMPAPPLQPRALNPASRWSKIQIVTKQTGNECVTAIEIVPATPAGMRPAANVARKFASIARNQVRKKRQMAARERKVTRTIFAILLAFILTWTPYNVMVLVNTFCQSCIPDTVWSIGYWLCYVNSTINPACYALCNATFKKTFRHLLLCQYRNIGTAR", "test": "hM4 Cerep panel", "conditions": "Compound concentration 10.0 uM"}, "[38]": {"target": "P2X receptor (Rattus norvegicus) (UniProt P51579+P49653+P51578+Q64663+P47824+P51577+P49654)", "test": "rP2X Cerep panel", "type": "protein assay", "conditions": "Compound concentration 10.0 uM"}, "[39]": {"target": "Sodium-dependent noradrenaline transporter (Homo sapiens) (UniProt P23975)", "test": "hNET Cerep panel", "conditions": "Compound concentration 10.0 uM"}, "Homo sapiens": {"species_on_record": "Homo sapiens", "test": "hN muscle type alpha Cerep panel", "conditions": "Compound concentration 10.0 uM"}, "[40]": {"target": "Muscarinic acetylcholine receptor M3 (Homo sapiens) (UniProt P20309)", "conditions": "Compound concentration 10.0 uM"}, "[41]": {"target": "cAMP and cAMP-inhibited cGMP 3',5'-cyclic phosphodiesterase 10A (Mus musculus) (UniProt Q8CA95)"}},
  "data": [
    {"smiles": "c1ccc(C2CCN(c3cnc4c(N5CCOCC5)nccn34)CC2)cc1", "values": [
      {"measurement": "Ki", "setting": "[1]", "result": 1.82, "unit": "µM"},
      {"measurement": "IC50", "setting": "[2]", "result": "> 10 µM (not active)"},
      {"measurement": "inhibition", "setting": "[3]", "result": 34.6, "unit": "%"}
    ]},
    {"smiles": "COCCc1ccc(-c2c(C)nc3c(N4CCOCC4)ccnn23)cn1", "note": "[JNJ-42396302]", "values": [
      {"measurement": "inhibition", "setting": "[4]", "result": 0, "unit": "%"},
      {"measurement": "inhibition", "setting": "[5]", "result": 0, "unit": "%"},
      {"measurement": "inhibition", "setting": "[6]", "result": -2, "unit": "%"},
      {"measurement": "inhibition", "setting": "[7]", "result": -5, "unit": "%"},
      {"measurement": "inhibition", "setting": "[8]", "result": 13, "unit": "%"},
      {"measurement": "inhibition", "setting": "[9]", "result": -5, "unit": "%"},
      {"measurement": "inhibition", "setting": "[10]", "result": 11, "unit": "%"},
      {"measurement": "inhibition", "setting": "[11]", "result": 3, "unit": "%"},
      {"measurement": "inhibition", "setting": "[12]", "result": -1, "unit": "%"},
      {"measurement": "inhibition", "setting": "[13]", "result": 3, "unit": "%"},
      {"measurement": "inhibition", "setting": "[14]", "result": -2, "unit": "%"},
      {"measurement": "inhibition", "setting": "[15]", "result": -3, "unit": "%"},
      {"measurement": "inhibition", "setting": "[16]", "result": -2, "unit": "%"},
      {"measurement": "inhibition", "setting": "[17]", "result": -2, "unit": "%"},
      {"measurement": "inhibition", "setting": "[18]", "result": 4, "unit": "%"},
      {"measurement": "inhibition", "setting": "[19]", "result": 7, "unit": "%"},
      {"measurement": "inhibition", "setting": "[20]", "result": 5, "unit": "%"},
      {"measurement": "inhibition", "setting": "[21]", "result": 2, "unit": "%"},
      {"measurement": "inhibition", "setting": "[22]", "result": 5, "unit": "%"},
      {"measurement": "inhibition", "setting": "[23]", "result": -7, "unit": "%"},
      {"measurement": "inhibition", "setting": "[24]", "result": 9, "unit": "%"},
      {"measurement": "inhibition", "setting": "[25]", "result": 7, "unit": "%"},
      {"measurement": "inhibition", "setting": "[26]", "result": 1, "unit": "%"},
      {"measurement": "inhibition", "setting": "[27]", "result": 0, "unit": "%"},
      {"measurement": "inhibition", "setting": "[28]", "result": 6, "unit": "%"},
      {"measurement": "inhibition", "setting": "[29]", "result": 4, "unit": "%"},
      {"measurement": "inhibition", "setting": "[30]", "result": 0, "unit": "%"},
      {"measurement": "Ki", "setting": "[31]", "result": 33, "unit": "µM"},
      {"measurement": "effect", "setting": "[32]", "result": 0.15, "unit": "%"},
      {"measurement": "effect", "setting": "[33]", "result": 2.05, "unit": "%"},
      {"measurement": "effect", "setting": "[34]", "result": -2.55, "unit": "%"},
      {"measurement": "effect", "setting": "Rattus norvegicus [35]", "result": 41.5, "unit": "%"},
      {"measurement": "effect", "setting": "Rattus norvegicus [36]", "result": -6, "unit": "%"},
      {"measurement": "effect", "setting": "[37]", "result": -3.05, "unit": "%"},
      {"measurement": "effect", "setting": "[38]", "result": 6.95, "unit": "%"},
      {"measurement": "effect", "setting": "[39]", "result": 6.7, "unit": "%"},
      {"measurement": "effect", "setting": "Homo sapiens", "result": -7.3, "unit": "%"},
      {"measurement": "inhibition", "setting": "[40]", "result": 6.41, "unit": "%"},
      {"measurement": "Increase in cAMP", "setting": "[41]", "result": 2.3, "unit": "fold"}
    ]}
  ]
}
